The source of these data is patent US9708628B2, “Cationic lipid having improved intracellular kinetics” (NOF CORPORATION, priority 2011, dated 2017).

The structures appear in SMILES notation.

For data set [1], the system named is HT1080 cells. The data set is described as follows: Influence of endosome/lysosome acidification inhibition (bafilomycin A1) on gene expression activity. It counts as cell-based. As to conditions: 0.5 μM bafilomycin A1. How it is done: Using B-2 (Example 1), B-2-1 (Comparative Example 1), and DODAP (Comparative Example 2) as cationic lipids, MENDs having a composition of cationic lipid:SOPE:Chol=5:3:2 were prepared by the method described in [Experimental Example 1] (2). For the preparation, PEG2000-DMG was used as PEG lipid, and MEND solutions corresponding to 0.55 mM of the lipid concentration were prepared. For cationic MEND, lipids having a composition of DOTAP (Comparative Example 3):DOPE:Chol:=3:4:3 were used, and the cationic MEND was prepared according to the method described in [Experimental Example 1] (3).
HT1080 cells were plated on a 24-well plate at 4×10^4 cell/500 μL/well 24 hr before, bafilomycin A1 was added at 0.5 μM 30 min before for a pre-treatment. Various MENDs were diluted with DMEM (FBS 10%+) to a pDNA amount of 0.4 μg/500 μL/well, bafilomycin A1 was added at 0.5 μM, and transfection was performed. 3 hr later, the MEND solution was removed, and DMEM (FBS 10%+) was added at 500 μL/well to change the medium. 24 hr later, the cells were washed with PBS(−) (500 μL), 1× Lysis buffer was added to each well by 75 μL, and the mixture was stood at −80° C. for 30 min or longer. The frozen 24-well plate was thawed on ice, the cells were detached with a cell scraper, and the total amount thereof was transferred into an Eppendorf tube and centrifuged under the conditions of 15000 rpm, 4° C., 5 min. The supernatant (50 μL) was recovered in a different Eppendorf tube, and used for luciferase assay and BCA assay. The gene expression was evaluated by the method described in [Example 4] (2).

Data set [2] in a line: Liposome destabilization test in reductive environment (DTT, TNS fluorescence). It counts as physicochemical. To be noted: 10 mM DTT, 37° C., 0-24 hr; TNS at pH 4.0. On the procedure: DTT was added to various MEND solutions to a final concentration of 10 mM and the mixtures were stood at 37° C. The fluorescence intensity was measured using TNS (6-(p-Toludino)-2-Naphthalene Sulfonic acid) at the time points of 0, 1, 2, 4, 8, 24 hr later. The MEND solutions were diluted to 0.5 mM. The 0.5 mM MEND solution (12 μL), 20 mM citrate buffer (186 μL, containing 150 mM NaCl, acidic pH (pH 4.0)), and 0.6 mM TNS (2 μL) were added to a 96-well plate for fluorescence measurement (Nunc), and the fluorescence intensity was measured at excitation wavelength 321 nm, detection wavelength 447 nm, at 37° C. As a control, MEND solution added with the same amount of 10 mM HEPES buffer free of DTT at 0 hr and stood for each time at 37° C. was used, and the fluorescence intensity was measured using TNS by the same treatment. The fluorescence intensity under reductive environment was divided by the fluorescence intensity of the control and used as an index of the destabilization of lipid membrane.
As a result, attenuation of TNS fluorescence due to the DTT treatment was not observed in DODAP and B-2-1 not having a disulfide bond. […] TNS is adsorbed, under an acidic environment of pH 4.0, to a particle surface having a positive surface potential via electrostatically interactions, and emits fluorescence according to the liposoluble environment of the lipid structure part of a liposome.

The subject of data set [3] is HT1080 cells. Put plainly: Intracellular kinetics: endosomal escape of rhodamine-labeled pDNA (confocal microscopy). The class given is cell-based. As to conditions: for gene endosomal escape efficiency, quantified (order): FIG. 7; for endosomal escape potency (colocalization of pDNA red and endosome/lysosome green): cationic lipid:SOPE:Chol=5:3:2 or DOTAP:DOPE:Chol=3:4:3, 3 hr after transfection. On the procedure: For MEND preparation, the Rhodamine-labeled pDNA prepared by the method of [Experimental Example 1] (4) was used. MEND having a composition of cationic lipid:SOPE:Chol=5:3:2 was prepared by the method described in [Experimental Example 1] (2). For the preparation, PEG2000-DMG was used as PEG lipid, and MEND solutions corresponding to 0.55 mM of the lipid concentration were prepared. For cationic MEND, lipids having a composition of DOTAP (Comparative Example 3):DOPE:Chol:=3:4:3 were used, and the cationic MEND was prepared according to the method described in [Experimental Example 1] (3). In addition, cationic MEND having a lipid composition of DOTAP:DOPE:Chol:=3:4:3 was also prepared by a simple hydration method to have a lipid concentration of 0.55 mM.
HT1080 cells were plated on a glass bottom dish at 1×10^5 cells/2 mL/dish 24 hr before. Since MENDs composed of B-2 or DODAP show low uptake activity into cells, MEND was diluted with Krebs buffer to pDNA 8 μg/1 mL Krebs buffer/dish. As for B-2-1 or DOTAP MEND having a high uptake activity, MEND was diluted with Krebs buffer to pDNA 1.6 μg/1 mL Krebs buffer/dish and transfected into the cells. After 2.5 hr, Lysotracker Green (Life technologies) was added at 1 μL/dish and, 30 min later, Hoechst 33342 (Dojindo) was further added at 1 μL/dish. 3 hr after the transfection, the cells were washed twice with heparin (20 units/mL, 2 mL), Krebs buffer (1 mL) was added, and the mixture was observed by a confocal laser scan microscope.
Rhodamine-labeled pDNA, endosome/lysosome, and nucleus were shown in pseudo colors of red, green and blue, respectively. The endosomal escape potency was evaluated by the colocalization of red and green. […] Furthermore, the gene endosomal escape efficiency was quantified to find higher efficiency in the order of DODAP<B-2-1<B-2.

The subject of data set [4] is HT1080 cells. The data set is described as follows: Intracellular kinetics: decapsulation of pDNA from MEND (confocal microscopy). The class given is cell-based. To be noted: 3 hr after transfection. How it is done:
For MEND preparation, the Rhodamine-labeled pDNA prepared by the method of [Experimental Example 1] (4) was used. In addition, the fluorescence label of the lipid constituting MEND was measured by the method described in [Experimental Example 1] (3). MENDs having a composition of cationic lipid:SOPE:Chol=5:3:2 were prepared by the method described in [Experimental Example 1] (2). For the preparation, PEG2000-DMG was used as PEG lipid, and MEND solutions corresponding to 0.55 mM of the lipid concentration were prepared. For cationic MEND, a lipid having a composition of DOTAP:DOPE:Chol:=3:4:3 was used, and the cationic MEND was prepared according to the method described in [Experimental Example 1] (3). […]
HT1080 cells were plated on a glass bottom dish at 1×10^5 cells/2 mL/dish 24 hr before. B-2 MEND was diluted with Krebs buffer to achieve pDNA 8 μg/1 mL Krebs buffer/dish. As for B-2-1 or DOTAP MEND, MEND was diluted with Krebs buffer to achieve pDNA 1.6 μg/1 mL Krebs buffer/dish and transfected. After 2.5 hr, Hoechst 33342 was added at 1 μL/dish and, 30 min later, the cells were washed twice with heparin solution (20 units/mL, 2 mL), Krebs buffer (1 mL) was added, and the cells were observed by a confocal laser scan microscope.
Rhodamine-labeled pDNA, lipid membrane of MEND and nucleus were shown in pseudo colors of red, green and blue, respectively.

In the case of `CCCCCCCC/C=C\CCCCCCCC(=O)OCC(CN(C)C)OC(=O)CCCCCCC/C=C\CCCCCCCC` (centres unmarked) [DODAP, reference compound], the “gene expression activity under bafilomycin A1” value (from here on “gene expression activity”) with HT1080 cells [1] is listed as “showed a decrease in the gene expression activity”. In addition, in data set [2], the “attenuation of TNS fluorescence due to DTT treatment (destabilization of lipid membrane)” value (“attenuation of TNS fluorescence due” for short) was “not observed”. Also, in the data set on HT1080 cells [3], the “gene endosomal escape efficiency, quantified (order)” value (from here on “gene endosomal escape efficiency”) is recorded as “DODAP<B-2-1<B-2”; the “endosomal escape potency (colocalization of pDNA red and endosome/lysosome green)” value is “colocalization of red and green was notable”.
`CCCCCCCC/C=C\CCCCCCCC(=O)OCC(C[N+](C)(C)C)OC(=O)CCCCCCC/C=C\CCCCCCCC` (centres unmarked) [DOTAP, reference compound]: in the data set with HT1080 cells [1], the “gene expression activity” value is recorded as “did not show a decrease in the gene expression activity”. The “endosomal escape potency (colocalization of pDNA red and endosome/lysosome green)” value in the data set with HT1080 cells [3] was “red signal alone was present”. Moreover, the “gene decapsulation (colocalization of pDNA red and MEND lipid green)” value (“gene decapsulation” for short) in the data set on HT1080 cells [4] was “Red dots were notable”.
On to `CCCCCCCCCCCCCC(=O)OCCCN(C)CCCCCCN(C)CCCOC(=O)CCCCCCCCCCCCC` [Example B-2-1, reference compound], for which, in the data set on HT1080 cells [1], the “gene expression activity” value is “did not show a decrease in the gene expression activity”. The “attenuation of TNS fluorescence due” value in data set [2] is listed as “not observed”. In the data set with HT1080 cells [3], the “gene endosomal escape efficiency” value is on record as “DODAP<B-2-1<B-2”; the “endosomal escape potency (colocalization of pDNA red and endosome/lysosome green)” value was “red signal alone was present”. In addition, the “gene decapsulation” value with HT1080 cells [4] was “clear colocalization of red and green”.
Regarding `CCCCCCCCCCCCCC(=O)OCCCN(C)CCSSCCN(C)CCCOC(=O)CCCCCCCCCCCCC` [Example B-2], the “gene expression activity” value in the data set with HT1080 cells [1] is recorded as “showed a decrease in the gene expression activity”. Besides, in data set [2], the “attenuation of TNS fluorescence due” value is “disappearance of TNS fluorescence in a time-dependent manner”. Besides, in the data set on HT1080 cells [3], the “gene endosomal escape efficiency” value is “DODAP<B-2-1<B-2”; the “endosomal escape potency (colocalization of pDNA red and endosome/lysosome green)” value is recorded as “red signal alone was present”. Further, the “gene decapsulation” value in the data set with HT1080 cells [4] is “Red dots were notable”.
